Where two headings read alike, the source gives them in different places.
Tested on: rat cytochrome P4503A
Conditions: for % inhibition (0.0001%): oil ingredient at 0.0001 wt % (Table 2); for % inhibition (0.001%): oil ingredient at 0.001 wt % (Table 2); for % inhibition (0.01%): oil ingredient at 0.01 wt % (Table 2)

SMILES	% inhibition (0.0001%)	% inhibition (0.001%)	% inhibition (0.01%)	further results
CC(C)=CCCC(C)CCO (stereo not drawn) [Citronellal-(DL)-(β), 3,7-Dimethyl-6-octen-1-ol]	41%	86%	95%	–
CC1=CCC2C(C1)C2(C)C (stereo not drawn) [Carene-3-(Δ)]	-26%	34%	–	–
C=CCc1ccc(OC)cc1 [Entragole, 4-Allylanisole]	7%	69.2%	100%	–
COc1cc(CNC(=O)CCCC/C=C/C(C)C)ccc1O [Capsaicin, trans-8-Methyl-N-vanillyl-6 nonenamide]	27%	68%	–	–
CC(=O)N1CCN(c2ccc(OCC3COC(Cn4ccnc4)(c4ccc(Cl)cc4Cl)O3)cc2)CC1 (stereo not drawn) [Ketoconazole, reference compound]	–	–	–	% inhibition (reference compound at 0.000001 % (Table 3)): 8%; % inhibition (reference compound at 0.000005 % (Table 3)): 20%; % inhibition (reference compound at 0.00001 % (Table 3)): 42%; % inhibition (reference compound at 0.00005 % (Table 3)): 100%
CCOC(=O)/C=C/c1ccccc1 [Ethyl Cinnamate, trans-]	-13%	-16%	–	–
CC(=O)OC/C=C(\C)CCC=C(C)C [Geranyl Acetate, trans-3,7-Dimethyl-2,,6-octadien-1-yl acetate]	–	51.5%	73%	–
COC(=O)c1ccccc1N [Methyl Anthranilate, Methyl 2-aminobenzoate]	-7%	23%	–	–
CC1(C)[C@H]2CC[C@]1(C)[C@H](O)C2 [Borneol-(IS)-endo(-), 1,7,7-Trimethylbicyclo[2.2.1]heptan-2-ol]	20%	80%	100%	–
C=CCc1ccc(O)c(OC)c1 [Eugenol, 4-Allyl-2-methoxyphenol]	9.8%	66%	100%	–
C=C(C)[C@@H]1CC=C(C)CC1 [Limonene-(S)-(-), p-Mentha-1,8-diene]	–	30%	82.3%	–
C=C1CC[C@H]2C[C@@H]1C2(C)C [Pinene-(IS)-(-)-β, 6,6-Dimethyl-2-mehylenebicyclo[3.1.1]heptane]	-10%	60%	88%	–
CC1=CC=C(C(C)C)CC1 [Terpinene-α, p-Mentha-1,3-diene]	-6%	28%	–	–
CC(C)=CCC/C(C)=C/C=O [Citral]	44%	54%	99%	–
C=C1C2CCC(C2)C1(C)C (single isomer, unassigned) [Camphene-(+), 2,2-Dimethyl-3-methylenebicyclo[2.2.1]heptane]	-49%	12.4%	–	–
C=C(C)[C@H]1CC=C(C)C(=O)C1 [Carvone-(S)-(+), p-Mentha-6,8-dien-2-one]	30%	70.5%	–	–
C=C(C)C1CC=C(C)C(O)C1 (single isomer, unassigned) [Carveol-(-), p-Mentha-6,8-dien-2-ol]	2%	60%	–	–

SMILES	% inhibition (0.0001%)	% inhibition (0.001%)	% inhibition (0.01%)	further results
O=C/C=C/c1ccccc1 [Cinnamic Aldehyde, trans-, 3-Phenylpropenaldehyde]	–	29.0%	78%	–
C=CC(C)(CCC=C(C)C)OC(C)=O (stereo not drawn) [Linalyl Acetate, 3,7-Dimethyl-1,6-octadien-3-yl acetate]	–	55.8%	100%	–
CC12CCC(CC1)C(C)(C)O2 [Eucatyptol, 1,8-Cincole]	38%	64%	88%	–
Cc1ccc(C(C)C)cc1O [Carvacrol, 5-isoPropyl-2-methylphenol]	11%	93%	97%	–
CC12CCC(CC1=O)C2(C)C (racemic) [Camphor-(±), 1,7,7-Trimethylbicyclo[2.2.1]heptan-2-one]	–	57%	87%	–
CC(C)=C1CC[C@@H](C)CC1=O [Pulegone-(R)-(+), p-Menth-4-(8)-en-3-one]	-17%	31%	–	–
CC1=CCC(O)(C(C)C)CC1 (stereo not drawn) [Terpinen-4-ol, p-Menth-1-en-4-ol]	3.81%	80%	100%	–
CCOc1cc(C=O)ccc1O [Ethyl Vanillin, 3-Ethoxy-4-hydroxybenzoledhyde]	–	–	58%	–
C=C1CC/C=C(\C)CC[C@@H]2[C@@H]1CC2(C)C [Caryophyllene, trans-(-), β Caryophyllene]	26%	85%	–	–
C=CC(=C)CCC=C(C)C [Myrcene-β, 7-Methyl-3-methylene-1,6-octadiene]	0%	13%	–	–
C/C=C/c1ccc(OC)cc1 [Anethole, trans-, 4-Propenylanisole]	–	53%	100%	–
Cc1ccc(C(C)C)c(O)c1 [Thymol, 2-isoPropyl-5-methylphenol]	–	56%	100%	–
COC(=O)c1ccccc1O [Methyl Salicylate, Methyl-2-hydroxybenzoate]	–	12%	86%	–
CC1=CCC(C(C)(C)O)CC1 (stereo not drawn) [Terpincol-α, p-Menth-1-en-8-ol]	13.4%	86%	100%	–
C=CC(C)(O)CCC=C(C)C (racemic) [Linalcol-(±), 3,7-Dimethyl-1,6-octadien-3-ol]	41%	72.0%	85%	–
C=C(C)[C@@H]1CC=C(C)C(=O)C1 [Carvone-(R)-(-), p-Mentha-6,8-dien-2-one]	27%	69%	100%	–
CC1(C)C(=O)[C@]2(C)CC[C@H]1C2 [Fenchone-(IR)-(-), 1,3,3-Trimethylbicyclo[2.2.1]heptan-2-one]	14%	38%	–	–
